Test results: US20250051321A1, “TRICYCLIC DERIVATIVE AND PREPARATION METHOD THEREFOR AND APPLICATION THEREOF” (SHANGHAI JEMINCARE PHARMACEUTICAL CO., LTD., priority 2021, published 2025)
Like-named read-outs stand apart in the source and are kept apart here.

How the values were obtained:
[1] = molecular target: ATX (Homo sapiens (Human), UniProt Q13822); experiment: ATX enzyme inhibition assay (Amplex UltraRed/choline oxidase/HRP, 16:0 Lyso PC substrate); format: biochemical
How it was run: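 ATX (2× stock […]) preincubated with compound for 10 min at room temperature in assay buffer at pH 8.5 or 7.5. Reaction started with 16:0 Lyso PC, choline oxidase, HRP and Amplex UltraRed (2.5× working stock); fluorescence read kinetically (ex 550/em 590 nm) for 60 min.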

[2] = system: plasma LPA 18:1 and LPA 18:2; experiment: Human plasma ex vivo assay (LPA 18:1 / 18:2 by LC-MS/MS); format: biochemical; settings: 37° C., 2 hours
Description: The collected plasma was centrifuged at 4000 rpm for 15 minutes at 4° C. The supernatant was aliquoted into a 96-well plate (25 μL per well), sealed, and frozen at −80° C. for further use.
LPA 17:0 powder was dissolved in a mixed solution of water: isopropanol: formic acid (1:1:1) to a final concentration of […]. The mixture was aliquoted and frozen at −20° C.
1 volume of formic acid was added to 1000× methanol, mixed well, and stored at 4° C. a) The 96-well plate containing frozen plasma was removed from the −80° C. freezer and thawed on ice at room temperature. b) 6 μL of 50× LPA 17:0 (internal standard) and 264 μL of 0.1% FA were added to a clean well of the 96-well plate; the final concentration of LPA 17:0 (internal standard) was 50 nM. c) 6× compound was 1:3 serially diluted to a total of 8 concentrations, and 5 μL of the compound per well was added to the 96-well plate containing plasma. The maximum final concentration of the compound was 10 μM, and the final concentration of DMSO was 0.1%. The plate was centrifuged at 300 rpm for 30 seconds. The DMSO control sample reacted for 0 hours was used as the minimum value (Min), and the DMSO control sample reacted for 2 hours was used as the maximum value (Max). […]
d) The DMSO sample reacted for 0 hours was rapidly transferred to 0.1% FA solution containing the internal standard in step b) to terminate the reaction and precipitate plasma proteins. e) The 96-well plate containing plasma and compounds was rapidly incubated in a 37° C. incubator for 2 hours. After the incubation, 6 μL of 10× LPA 17:0 and 264 μL of 0.1% FA were added to each well to terminate the reaction and precipitate plasma proteins. […]
f) All the samples were mixed well with a pipette, and centrifuged at 4000 rpm for 10 minutes at 4° C. 150 μL of the supernatant was added to a 96-well U-bottom plate (Thermo 267245), sealed with silica gel, and then loaded. The contents of LPA 18:1 and LPA 18:2 in the samples were detected by LC-MS/MS system.
LPA 18:1(or 18:2) relative content=LPA 18:1(or 18:2) peak area/LPA 17:0 peak area Percentage reduction (%) in plasma LPA18:1(or 18:2)=(Max−X)/(Max−Min)*100 Max: LPA 18:1 (or 18:2) relative content of the DMSO sample reacted for 2 hours Min: LPA 18:1 (or 18:2) relative content of the DMSO sample reacted for 0 hours X: LPA 18:1 (or 18:2) relative content of the sample after compound treatment for 2 hours The IC50 of the compounds was calculated by fitting a nonlinear regression through percentage reduction in plasma LPA 18:1 (or 18:2) and log value of compound concentration using the software GraphPad Prism 8.
Y=Bottom+(Top−Bottom)/(1+10^((Log IC50−X)*Hill Slope))

[3] = assay buffer pH 7.5, read-out: IC50 (nM) pH 7.5
[4] = assay buffer pH 8.5, read-out: IC50 (nM) pH 8.5
[5] = LPA 18:1, read-out: Human plasma ex vivo assay IC50 (18:1 LPA)
[6] = LPA 18:2, read-out: Human plasma ex vivo assay IC50 (18:2 LPA)

| IC50 [1, 3] [nM] | IC50 [1, 4] [nM] | IC50 [2, 5] [nM] | IC50 [2, 6] [nM] | SMILES |
| --- | --- | --- | --- | --- |
| 141 | 58.8 | 177 | 201 | CN(c1nc(-c2ccc(F)cc2)c(C#N)s1)c1c2c(nc3ccc(N4CCN(S(C)(=O)=O)C[C@H]4CO)cc13)CCC2 [Example B2] |
|  | 15.2 | 369 | 351 | C[C@H]1CN(CC(=O)N2CC(O)C2)CCN1c1cc(F)c2nc3c(c(N(C)c4nc(-c5ccc(F)cc5)c(C#N)s4)c2c1)CC[C@@H]3O (single isomer, unassigned) [Example E7-a] |
| 883 | 64 | 248 | 271 | CN(c1nc(-c2ccc(F)cc2)c(C#N)s1)c1c2c(nc3cc(F)c(N4CCN(CC(=O)N5CC(O)C5)CC4)cc13)CCC2 [Example A8] |
|  | 24.2 | 677 | 362 | CN(c1nc(-c2ccc(F)cc2)c(C#N)s1)c1c2c(nc3c(F)cc(N4CC5(CN(C(=O)C6(O)CCOCC6)C5)C4)cc13)COC2 [Example C20] |
|  | 26.7 | 207 | 203 | CN(c1nc(-c2ccc(F)cc2)c(C#N)s1)c1c2c(nc3c(F)cc(N4CC5(CN(C(=O)[C@@]6(O)CCOC6)C5)C4)cc13)[C@@H](O)CC2 (single isomer, unassigned) [Example E19-2a] |
| 219 | 22.3 | 64.5 | 91.6 | CN(c1nc(-c2ccc(F)cc2)c(C#N)s1)c1c2c(nc3ccc(N4CCN(CC(=O)N5CC(O)C5)CC4)nc13)CCO2 [Example A12] |
|  | 334 | 113 | 310 | CN(c1nc(-c2ccc(F)cc2)c(C#N)s1)c1c2c(nc3c(F)cc(N4CC5(CN(C(=O)[C@@]6(O)CCOC6)C5)C4)cc13)[C@@H](O)CC2 (single isomer, unassigned) [Example E19-2b] |
| 38.6 | 27.4 | 114 | 89.2 | CN(c1nc(-c2ccc(F)cc2)c(C#N)s1)c1c2c(nc3ncc(N4CC5(CN(C(=O)[C@@H]6CCOC6)C5)C4)cc13)CCC2 [Example C4] |
|  | 228 | 304 | 338 | Cc1cc(N2CCN(CC(=O)N3CC(O)C3)CC2)cc2c(N(C)c3nc(-c4ccc(F)cc4)c(C#N)s3)c3c(nc12)CCC3 [Example A14] |
| 541 | 75 | 251 | 269 | CN(c1nc(-c2ccc(F)cc2)c(C#N)s1)c1c2c(nc3c(F)cc(N4CC5(CN(CC(=O)N6CC(CO)C6)C5)C4)cc13)CCC2 [Example A25] |
| 41.6 | 23.8 | 402 | 365 | CN(c1nc(-c2ccc(F)cc2)c(C#N)s1)c1c2c(nc3c(F)cc(N4CC5(CN(C(=O)[C@@H]6CCOC6)C5)C4)cc13)CCC2 [Example C2] |
| 78.5 | 23 | 216 | 234 | CN(c1nc(-c2ccc(F)cc2)c(C#N)s1)c1c2c(nc3c(F)cc(N4CC5(CCN(C(=O)[C@@H]6CCOC6)CC5)C4)cc13)CCC2 [Example C9] |
|  | 14.9 | 392 | 388 | CN(c1nc(-c2ccc(F)cc2)c(C#N)s1)c1c2c(nc3c(F)cc(N4CC5(CN(C(=O)C6(O)CCOCC6)C5)C4)cc13)[C@@H](O)CC2 (single isomer, unassigned) [Example E15-a] |
|  | 14 | 387 | 431 | C[C@@H]1CN(CC(=O)N2CC(O)C2)CCN1c1cc(F)c2nc3c(c(N(C)c4nc(-c5ccc(F)cc5)c(C#N)s4)c2c1)CC[C@H]3O (single isomer, unassigned) [Example E6-b] |
|  | 27.2 | 218 | 479 | CN(c1nc(-c2ccc(F)cc2)c(C#N)s1)c1c2c(nc3c(F)cc(N4CC5(CN(C(=O)[C@]6(O)CCOC6)C5)C4)cc13)[C@@H](O)CC2 (single isomer, unassigned) [Example E19-1b] |
| 228 | 61.1 | 162 | 192 | CN(c1nc(-c2ccc(F)cc2)c(C#N)s1)c1c2c(nc3c(F)cc(N4CC5(CN(CC(=O)N6CC(CO)C6)C5)C4)cc13)CC2 [Example A18] |
|  | 19.8 | 385 | 385 | CN(c1nc(-c2ccc(F)cc2)c(C#N)s1)c1c2c(nc3c(F)cc(N4CC5(CN(C(=O)[C@@H]6CCOC6)C5)C4)cc13)[C@@H](O)CC2 (single isomer, unassigned) [Example E13-a] |
|  | 21.5 | 464 | 392 | C[C@@H]1CN(c2cc(F)c3nc4c(c(N(C)c5nc(-c6ccc(F)cc6)c(C#N)s5)c3c2)CC[C@@H]4O)CCN1CC(=O)N1CC(O)C1 (single isomer, unassigned) [Example E9-a] |
| 33.6 | 18.6 | 147 | 134 | CN(c1nc(-c2ccc(F)cc2)c(C#N)s1)c1c2c(nc3ccc(N4CC5(CN(C(=O)[C@H]6CCOC6)C5)C4)nc13)CCO2 [Example C10] |
|  | 16.2 | 139 | 270 | CN(c1nc(-c2ccc(F)cc2)c(C#N)s1)c1c2c(nc3c(F)cc(N4CCN(CC(=O)N5CC(C)(O)C5)CC4)cc13)C(O)CC2 (stereo not shown) [Example E10] |
|  | 18.4 | 209 | 199 | C[C@@H]1CN(c2cc(F)c3nc4c(c(N(C)c5nc(-c6ccc(F)cc6)c(C#N)s5)c3c2)CC[C@H]4O)CCN1CC(=O)N1CC(O)C1 (single isomer, unassigned) [Example E9-b] |
| 32 | 22.7 | 141 | 135 | CN(c1nc(-c2ccc(F)cc2)c(C#N)s1)c1c2c(nc3ncc(N4CC5(CN(C(=O)[C@H]6CCOC6)C5)C4)cc13)CCC2 [Example C3] |
| 611 | 66.5 | 219 | 253 | CN(c1nc(-c2ccc(F)cc2)c(C#N)s1)c1c2c(nc3c(F)cc(N4CCN(S(C)(=O)=O)[C@@H](CO)C4)cc13)CCC2 [Example B4] |
| 171 | 41.2 | 170 | 165 | CN(c1nc(-c2ccc(F)cc2)c(C#N)s1)c1c2c(nc3c(F)cc(N4CCN(S(C)(=O)=O)[C@H](CO)C4)cc13)CCC2 [Example B3] |
| 624 | 96.7 | 85 | 73.5 | CN(c1nc(-c2ccc(F)cc2)c(C#N)s1)c1c2c(nc3ccc(N4CCN(CC(=O)N5CC(O)C5)CC4)cc13)COC2 [Example A2] |
| 699 | 86.8 | 351 | 323 | CN(c1nc(-c2ccc(F)cc2)c(C#N)s1)c1c2c(nc3c(F)cc(N4CC5(CN(CC(=O)N6CC(O)C6)C5)C4)cc13)CCC2 [Example A9] |
|  | 19.6 | 160 | 152 | C[C@@H]1CN(c2cc(F)c3nc4c(c(N(C)c5nc(-c6ccc(F)cc6)c(C#N)s5)c3c2)CCC4O)CCN1CC(=O)N1CC(O)C1 (stereo partly shown) [Example E9] |
| 232 | 60.6 | 285 | 326 | CN(c1nc(-c2ccc(F)cc2)c(C#N)s1)c1c2c(nc3c(F)cc(N4CCC5(CCN(C(=O)[C@@H]6CCOC6)CC5)C4)cc13)CCC2 [Example C15] |
|  | 15.4 | 149 | 327 | C[C@H]1CN(CC(=O)N2CC(O)C2)CCN1c1cc(F)c2nc3c(c(N(C)c4nc(-c5ccc(F)cc5)c(C#N)s4)c2c1)CCC3O (stereo partly shown) [Example E7] |
| 318 | 44.7 | 182 | 184 | CN(c1nc(-c2ccc(F)cc2)c(C#N)s1)c1c2c(nc3c(F)cc(N4CCC5(CC4)CN(CC(=O)N4CC(O)C4)C5)cc13)CCC2 [Example A6] |
